Results on 10 compounds are retold here after patent US6100273A, “Water soluble camptothecin derivatives” (priority 1997, dated 2000).

Where a name gives a salt, the structure may show the parent alone. Read-outs that look alike come from different tables or passages of the source. Bounds are passed on as bounds.

In one data set the target is T1, topoisomerase Type I (Bos taurus, UniProt F1MN93).
T1 sequence (F1MN93 1-767): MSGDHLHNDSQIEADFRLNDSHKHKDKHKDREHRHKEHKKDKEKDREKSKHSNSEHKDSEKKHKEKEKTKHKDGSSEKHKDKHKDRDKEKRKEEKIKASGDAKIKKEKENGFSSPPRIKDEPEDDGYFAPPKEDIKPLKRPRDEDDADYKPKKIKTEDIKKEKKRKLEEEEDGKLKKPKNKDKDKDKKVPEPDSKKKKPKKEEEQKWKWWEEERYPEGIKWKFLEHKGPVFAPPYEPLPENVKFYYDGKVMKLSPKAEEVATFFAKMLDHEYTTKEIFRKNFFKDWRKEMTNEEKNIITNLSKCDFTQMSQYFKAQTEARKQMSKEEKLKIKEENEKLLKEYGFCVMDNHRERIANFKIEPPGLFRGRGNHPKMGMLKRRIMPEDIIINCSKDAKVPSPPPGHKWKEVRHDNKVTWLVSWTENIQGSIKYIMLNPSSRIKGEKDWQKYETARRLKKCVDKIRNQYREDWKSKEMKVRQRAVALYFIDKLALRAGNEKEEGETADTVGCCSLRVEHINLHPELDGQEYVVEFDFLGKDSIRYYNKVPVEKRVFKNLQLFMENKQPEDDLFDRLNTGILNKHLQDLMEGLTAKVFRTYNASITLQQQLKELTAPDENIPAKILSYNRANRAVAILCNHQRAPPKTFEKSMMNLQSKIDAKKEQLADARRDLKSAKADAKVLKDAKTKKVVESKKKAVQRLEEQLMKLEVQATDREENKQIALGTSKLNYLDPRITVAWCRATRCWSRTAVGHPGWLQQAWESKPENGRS
The data set can be described thus: biochemical. Here is the method: Cleavable Complex in vitro Assay
The relative topoisomerase Type I inhibitory activity of the compounds of formula (I) was determined by cleavable complex in vitro assay. This assay performed according to the method described in Hsiang, Y. et al., J. Biol. Chem., 260:14873-14878 (1985), correlates well with in vivo anti-tumor activity of topoisomerase inhibitors in animal models of cancer, e.g., camptothecin and its analogs. See Hsiang et al., Cancer Research, 49:4385-4389 (1989) and Jaxel et al., Cancer Research, 49:1465-1469 (1989).

Data set [1] in a line: Oxidation during purification. In kind it is physicochemical. The conditions noted are these: oxidizes to the sulfinyl compound of Example 27. Here is the method:
Mp. 195° C. (dec). MS MH+554.

For data set [2] the following is noted: cited from earlier work.
Another data set deals with leukemia (L-1210). The conditions noted are these: laboratory animals; cited from earlier work.
The test system of another data set is tumor. The conditions noted are these: background on camptothecin; cited from earlier work.
The next data set relates to topoisomerase I. The conditions noted are these: background on camptothecin; cited from earlier work.
In the next data set the test system is certain solid tumors. The conditions noted are these: laboratory animals; cited from earlier work.
The conditions of data set [3]: Wani et al.; cited from earlier work.

As to `CCCCOP(=O)(Cc1c2c(nc3cc4c(cc13)OCCO4)-c1cc3c(c(=O)n1C2)COC(=O)[C@]3(O)CC)OCCCC` [Example 15, 7-Di-n-butylphosphonomethylene-10,11-(ethylenedioxy)-20(S)-camptothecin], the IC50 (usually the midpoint of a concentration-inhibition curve) against topoisomerase Type I was above 2000 nM.
With `CC[C@@]1(O)C(=O)OCc2c1cc1n(c2=O)Cc2c-1nc1cc3c(cc1c2CSc1ccc(NC(C)=O)cc1)OCCO3` [Example 17, 7-(4-Acetamidophenylthio)methyl-10,11-(ethylenedioxy)-20(S)-camptothecin], the IC50 at topoisomerase Type I (read-out: topoisomerase Type I inhibitory activity (IC50), concentration at which 50% of the DNA substrate has been captured by topoisomerase 1) is above 500 nM.
In the case of `CC[C@@]1(O)C(=O)OCc2c1cc1n(c2=O)Cc2c-1nc1cc3c(cc1c2CSc1ccc(NC(=O)CN(C)C)cc1)OCCO3` [Example 28, 7-(4-(2-Dimethylaminoacetamido)phenylthio)methyl-10,11-(ethylenedioxy)-20(S)-camptothecin], the IC50 against topoisomerase Type I is above 500 nM.
In the case of `CCC1(O)C(=O)OCc2c1cc1n(c2=O)Cc2c-1nc1cc3c(cc1c2C[n+]1ccccc1)OCCO3` (racemic) [Example 31, 7-Pyridinium methylene-10,11 ethylenedioxy-20(R,S)-camptothecin chloride], the IC50 against topoisomerase Type I was above 1000 nM.
Turning to `CC[C@@]1(O)C(=O)OCc2c1cc1n(c2=O)Cc2c-1nc1cc3c(cc1c2C[S+]([O-])CCCN(C)C)OCCO3` (stereo partly drawn) [Example 27, 7-(3-Dimethylaminopropylsulfinyl)methyl-10,11-(ethylenedioxy)-20(S)-camptothecin], the oxidation during purification result in data set [1] is “readily oxidize”.
Regarding `CC[C@@]1(O)C(=O)OCc2c1cc1n(c2=O)Cc2cc3ccccc3nc2-1` [Camptothecin], the “solubility in physiologically compatible, aqueous media” value in data set [2] is given as “essentially insoluble”. Besides, in the data set on leukemia (L-1210), the “effectiveness in the treatment of leukemia (L-1210)” value is listed as “effective”. Besides, the antitumor activity result in the data set on tumor is reported as “potent antitumor agent”. The “topoisomerase I inhibition” value in the data set with topoisomerase I was “topoisomerase I inhibitor”. Besides, the “effectiveness in the treatment of certain solid tumors” value in the data set on certain solid tumors was “effective”.
Take `CC[C@@](O)(C(=O)O)c1cc2n(c(=O)c1CO)Cc1cc3ccccc3nc1-2` [sodium salt]: the “solubility in physiologically compatible, aqueous media” value in data set [2] is listed as “soluble”.
As to `CC[C@@]1(O)C(=O)OCc2c1cc1n(c2=O)Cc2c-1nc1cc3c(cc1c2C[n+]1cccc(CO)c1)OCCO3` [Example 36, 7-(3'-Hydroxymethylpyridinium)methylene-10,11-ethylenedioxy-20(S)-camptothecin chloride], the IC50 on topoisomerase Type I (concentration at which 50% of the DNA substrate has been captured by topoisomerase 1, read-out: topoisomerase Type I inhibitory activity (IC50)) was above 500 nM.
On topoisomerase Type I, `CC[C@@]1(O)C(=O)OCc2c1cc1n(c2=O)Cc2c-1nc1cc3c(cc1c2CSc1ccc(N)cc1)OCCO3` [Example 18, 7-(4-Aminophenylthio)methyl-10,11-(ethylenedioxy)-20(S)-camptothecin] yielded an IC50 above 500 nM.
Consider `CCC1(O)C(=O)OCc2c1cc1n(c2=O)Cc2cc3cc4c(cc3nc2-1)OCO4` (stereo not drawn) [10,11-methylenedioxycamptothecin], for which the water solubility entry in data set [2] (compared with camptothecin) is given as “as poor as camptothecin”. In addition, the “potency relative to unsubstituted camptothecin” value in data set [3] is listed as “more potent”.
